Common to all, as to format: cell-based
The target in assay [1] is T1, GIP receptor (Homo sapiens, UniProt P48546).
T1 sequence (P48546 22-466): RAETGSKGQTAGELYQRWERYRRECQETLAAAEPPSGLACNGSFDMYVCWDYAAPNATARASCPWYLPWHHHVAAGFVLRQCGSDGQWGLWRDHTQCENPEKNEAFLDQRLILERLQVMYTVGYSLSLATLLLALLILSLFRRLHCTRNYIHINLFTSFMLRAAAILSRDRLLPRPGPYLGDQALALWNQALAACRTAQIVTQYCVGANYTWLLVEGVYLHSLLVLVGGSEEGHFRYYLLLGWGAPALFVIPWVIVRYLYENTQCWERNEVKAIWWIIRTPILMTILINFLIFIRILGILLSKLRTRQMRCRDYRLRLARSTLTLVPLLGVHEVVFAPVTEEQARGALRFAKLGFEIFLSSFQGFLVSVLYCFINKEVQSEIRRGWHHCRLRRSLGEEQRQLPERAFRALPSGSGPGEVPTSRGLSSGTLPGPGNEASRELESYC
Put plainly: HitHunter cAMP assay, GIP receptor. Conditions: for EC50: CHO cells stably expressing GIP receptor, cAMP accumulation, 30 min, read-out: EC50 GIP-1R; for Emax: CHO cells, cAMP, normalized to maximum signal from GIP (high) and DMSO (low), read-out: Emax GIP-1R.

The target in assay [2] is T2, GLP-1 receptor (Homo sapiens, UniProt P43220). Put plainly: PathHunter β-arrestin assay, GLP-1 receptor. Also noted: host or cells: PathHunter CHO-K1 GLP1R β-Arrestin Cell Line. The note with it: β-arrestin-2 recruitment, PathHunter CHO-K1 GLP1R β-Arrestin Cell Line, 90 min at 37° C.; normalized to GLP-1; read-out: GLP-1R β Arrestin EC50.
The target in assay [3] is T2, GLP-1 receptor. The experiment in a line: HitHunter cAMP assay, GLP-1 receptor. The note with it: for EC50: CHO cells stably expressing human GLP-1 receptor, cAMP accumulation, 30 min, read-out: EC50 GLP-1R; for Emax: CHO cells, cAMP, normalized to maximum signal from GLP-1 (high) and DMSO (low), read-out: Emax GLP-1R.
Assay [4] concerns the target T1, GIP receptor. The experiment in a line: PathHunter β-arrestin assay, GIP receptor. Also noted: host or cells: PathHunter CHO-K1 GIPR β-Arrestin Cell Line. Conditions: β-arrestin-2 recruitment, PathHunter CHO-K1 GIPR β-Arrestin Cell Line, 90 min at 37° C.; normalized to GIP; read-out: GIPR β Arrestin EC50.

*1 amine or outer side, *2 acyl side, *3 side chain or, on linkers, in order; H or OH if unused. Where a SMILES comes first, the peptide text is derived from it. Side-chain parts run from the residue outwards. [ ]: non-standard residue; d: D form. The star is where a group is joined. Isobutyryl(2-(3-CN-5-F-Ph)) = CC(C)(C(=O)*)c1cc(F)cc(C#N)c1; C20 diacid = O=C(O)CCCCCCCCCCCCCCCCCCC(=O)*; γGlu = O=C(O)[C@H](CCC(=O)[*:2])N[*:1]; X43 = O=C1CCC(C(=O)*)(c2ccccc2)CN1; X26 = O=C(C1(c2ccccc2)CCCC1)*; AEEA = NCCOCCOCC(=O)O; Aib = CC(C)(N)C(=O)O; βAla = NCCC(=O)O

T2 sequence (P43220 24-463): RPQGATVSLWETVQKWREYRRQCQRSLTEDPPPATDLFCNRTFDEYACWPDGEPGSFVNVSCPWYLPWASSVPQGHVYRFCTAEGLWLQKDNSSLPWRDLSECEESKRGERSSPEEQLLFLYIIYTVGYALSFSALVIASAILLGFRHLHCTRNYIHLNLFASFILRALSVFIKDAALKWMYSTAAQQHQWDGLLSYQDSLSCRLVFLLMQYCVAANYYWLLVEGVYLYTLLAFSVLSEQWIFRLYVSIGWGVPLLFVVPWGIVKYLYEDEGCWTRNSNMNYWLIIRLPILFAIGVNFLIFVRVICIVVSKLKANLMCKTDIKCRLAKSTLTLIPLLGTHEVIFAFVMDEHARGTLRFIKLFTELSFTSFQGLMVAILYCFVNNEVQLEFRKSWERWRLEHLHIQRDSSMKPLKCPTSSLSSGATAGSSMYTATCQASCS

With `CC[C@H](C)[C@H](NC(=O)[C@H](CC(C)C)NC(=O)[C@H](Cc1c[nH]c2ccccc12)NC(=O)[C@H](CCC(N)=O)NC(=O)[C@@H](NC(=O)[C@H](Cc1ccccc1)NC(=O)[C@H](C)NC(=O)[C@H](CCCCNC(=O)COCCOCCNC(=O)COCCOCCNC(=O)CC[C@H](NC(=O)CCCCCCCCCCCCCCCCCCC(=O)O)C(=O)O)NC(=O)[C@H](CCC(N)=O)NC(=O)[C@H](C)NC(=O)[C@@H](NC(=O)[C@H](CCCCN)NC(=O)[C@H](CC(=O)O)NC(=O)[C@H](CC(C)C)NC(=O)C(C)(C)NC(=O)[C@@H](NC(=O)[C@H](CO)NC(=O)[C@H](Cc1ccc(O)cc1)NC(=O)[C@H](CC(=O)O)NC(=O)[C@H](CO)NC(=O)[C@@H](NC(=O)[C@H](Cc1ccccc1)NC(=O)[C@@H](NC(=O)CNC(=O)[C@H](CCC(=O)O)NC(=O)CCNC(=O)C1(c2ccccc2)CCCC1)[C@@H](C)O)[C@@H](C)O)[C@@H](C)CC)[C@@H](C)CC)C(C)C)C(=O)N[C@@H](C)C(=O)NCC(=O)NCC(=O)N1CCC[C@H]1C(=O)N[C@@H](CO)C(=O)N[C@@H](CO)C(=O)NCC(=O)N[C@@H](C)C(=O)N1CCC[C@H]1C(=O)N1CCC[C@H]1C(=O)N1CCC[C@H]1C(=O)N[C@@H](CO)C(N)=O` [Compound 236] ({X26-βAla}-EGTFTSDYSI[Aib]LDKIAQK([AEEA-AEEA-γGlu-C20 diacid])AFVQWLIAGGPSSGAPPPS-NH2), the EC50 was 1 to 10 nM at GIP receptor [1], more than 1000 nM at GLP-1 receptor [2], 0.1 to 1 nM on GLP-1 receptor [3] and more than 1000 nM at GIP receptor [4]. Moreover, the Emax on GIP receptor [1] was 114%; on GLP-1 receptor [3], 127%.
`CC[C@H](C)[C@H](NC(=O)[C@H](CO)NC(=O)[C@H](Cc1ccc(O)cc1)NC(=O)[C@H](CC(=O)O)NC(=O)[C@H](CO)NC(=O)[C@@H](NC(=O)[C@](C)(Cc1ccccc1F)NC(=O)[C@@H](NC(=O)CNC(=O)[C@H](CCC(=O)O)NC(=O)CCNC(=O)C1(c2ccc(Cl)cc2)CCCC1)[C@@H](C)O)[C@@H](C)O)C(=O)N[C@@H](Cc1ccc(O)cc1)C(=O)N[C@@H](CC(C)C)C(=O)N[C@@H](CC(=O)O)C(=O)N[C@@H](CCCCN)C(=O)N[C@@H](CCC(N)=O)C(=O)N[C@@H](C)C(=O)N[C@@H](C)C(=O)NC(C)(C)C(=O)N[C@@H](CCC(=O)O)C(=O)N[C@@H](Cc1ccccc1)C(=O)N[C@H](C(=O)N[C@@H](CC(N)=O)C(=O)N[C@@H](Cc1c[nH]c2ccccc12)C(=O)N[C@@H](CC(C)C)C(=O)N[C@@H](CC(C)C)C(=O)N[C@@H](C)C(=O)NCC(=O)NCC(=O)N1CCC[C@H]1C(=O)N[C@@H](CO)C(=O)N[C@@H](CO)C(=O)NCC(=O)N[C@@H](C)C(=O)N1CCC[C@H]1C(=O)N1CCC[C@H]1C(=O)N1CCC[C@H]1C(=O)N[C@@H](CO)C(=O)N[C@@H](CCCCNC(=O)COCCOCCNC(=O)COCCOCCNC(=O)CC[C@H](NC(=O)CCCCCCCCCCCCCCCCCCC(=O)O)C(=O)O)C(N)=O)C(C)C` [Compound 141]: the half-maximal effective concentration (EC50) was 0.1 to 1 nM on GIP receptor [1], more than 1000 nM at GLP-1 receptor [2], 0.1 to 1 nM at GLP-1 receptor [3] and less than 1000 nM at GIP receptor [4]. Moreover, the Emax at GIP receptor [1] was 108%; on GLP-1 receptor [3], 97%.
For the compound `CC[C@H](C)[C@H](NC(=O)[C@H](CO)NC(=O)[C@H](CCCCNC(=O)COCCOCCNC(=O)COCCOCCNC(=O)CC[C@H](NC(=O)CCCCCCCCCCCCCCCCCCC(=O)O)C(=O)O)NC(=O)[C@H](CC(=O)O)NC(=O)[C@H](CO)NC(=O)[C@@H](NC(=O)[C@H](Cc1ccccc1)NC(=O)[C@@H](NC(=O)CNC(=O)[C@H](CCC(=O)O)NC(=O)CCNC(=O)C1(c2ccccc2)CCC(=O)NC1)[C@@H](C)O)[C@@H](C)O)C(=O)N[C@@H](Cc1ccc(O)cc1)C(=O)N[C@@H](CC(C)C)C(=O)N[C@@H](CC(=O)O)C(=O)N[C@@H](CCCCN)C(=O)N[C@@H](CCC(N)=O)C(=O)N[C@@H](C)C(=O)N[C@@H](C)C(=O)NC(C)(C)C(=O)N[C@@H](CCC(=O)O)C(=O)N[C@@H](Cc1ccccc1)C(=O)N[C@H](C(=O)N[C@@H](CC(N)=O)C(=O)N[C@@H](Cc1c[nH]c2ccccc12)C(=O)N[C@@H](CC(C)C)C(=O)N[C@@H](CC(C)C)C(=O)N[C@@H](C)C(=O)NCC(=O)NCC(=O)N1CCC[C@H]1C(=O)N[C@@H](CO)C(=O)N[C@@H](CO)C(=O)NCC(=O)N[C@@H](C)C(=O)N1CCC[C@H]1C(=O)N1CCC[C@H]1C(=O)N1CCC[C@H]1C(=O)N[C@@H](CO)C(N)=O)C(C)C` (stereo partly drawn) [Compound 153] ({X43-βAla}-EGTFTSDK([AEEA-AEEA-γGlu-C20 diacid])SIYLDKQAA[Aib]EFVNWLLAGGPSSGAPPPS-NH2), the EC50 on GIP receptor [1] is 1 to 10 nM; on GLP-1 receptor [2], more than 1000 nM; on GLP-1 receptor [3], 0.1 to 1 nM; at GIP receptor [4] it was more than 1000 nM. For the same compound, the Emax was 105% at GIP receptor [1] and 101% at GLP-1 receptor [3].
`CC[C@H](C)[C@H](NC(=O)[C@H](CC(C)C)NC(=O)[C@H](Cc1c[nH]c2ccccc12)NC(=O)[C@H](CCC(N)=O)NC(=O)[C@@H](NC(=O)[C@H](Cc1ccccc1)NC(=O)[C@H](C)NC(=O)[C@H](CCCCNC(=O)COCCOCCNC(=O)COCCOCCNC(=O)CC[C@H](NC(=O)CCCCCCCCCCCCCCCCCCC(=O)O)C(=O)O)NC(=O)[C@H](CCC(N)=O)NC(=O)[C@H](C)NC(=O)[C@@H](NC(=O)[C@H](CCCCN)NC(=O)[C@H](CC(=O)O)NC(=O)[C@H](CC(C)C)NC(=O)C(C)(C)NC(=O)[C@@H](NC(=O)[C@H](CO)NC(=O)[C@H](Cc1ccc(O)cc1)NC(=O)[C@H](CC(=O)O)NC(=O)[C@H](CO)NC(=O)[C@@H](NC(=O)[C@H](Cc1ccccc1)NC(=O)[C@@H](NC(=O)CNC(=O)[C@@H](CC(=O)O)NC(=O)CCNC(=O)C(C)(C)c1cc(F)cc(C#N)c1)[C@@H](C)O)[C@@H](C)O)[C@@H](C)CC)[C@@H](C)CC)C(C)C)C(=O)N[C@@H](C)C(=O)NCC(=O)NCC(=O)N1CCC[C@H]1C(=O)N[C@@H](CO)C(=O)N[C@@H](CO)C(=O)NCC(=O)N[C@@H](C)C(=O)N1CCC[C@H]1C(=O)N1CCC[C@H]1C(=O)N1CCC[C@H]1C(=O)N[C@@H](CO)C(N)=O` [Compound 127] ({Isobutyryl(2-(3-CN-5-F-Ph))-βAla}-[dD]GTFTSDYSI[Aib]LDKIAQK([AEEA-AEEA-γGlu-C20 diacid])AFVQWLIAGGPSSGAPPPS-NH2): the EC50 at GIP receptor [1] is 100 to 1000 nM; at GLP-1 receptor [2] it was more than 1000 nM; on GLP-1 receptor [3], 1 to 10 nM; at GIP receptor [4], more than 1000 nM. In addition, the Emax on GIP receptor [1] amounted to 82%; at GLP-1 receptor [3] it was 93%.

The record behind these values is patent US12281149B2, “Modulators of G-protein coupled receptors” (priority 2021, dated 2025).
